Experimental data reported in patent US7638631B2, “Methylene dipiperidine derivatives” (Glaxo Group Limited, priority 2004, dated 2009).

Key:
[1] = target: T1, human H1 receptor (Homo sapiens, UniProt P35367); assay: Histamine H1 functional antagonist assay (FLIPR, Chinese hamster ovary cells); type: cell-based; details: H1 cell line, FLIPR fluorescence, histamine at EC80; Cheng-Prusoff; averages of a number of experiments; read-out: functional pKi (fpKi), histamine H1 functional antagonist assay (converted)
T1 construct: expressed in transfected cells
Protocol: (iii) Generation of Histamine H1 Cell Line
The human H1 receptor was cloned using known procedures described in the literature [Biochem. Biophys. Res. Commun. 1994, 201(2), 894]. Chinese hamster ovary cells stably expressing the human Hi receptor were generated according to known procedures described in the literature [Br. J. Pharmacol. 1996, 117(6), 1071].
(II) Histamine H1 Functional Antagonist Assay
The histamine H1 cell line was seeded into non-coated black-walled clear bottom 384-well tissue culture plates in alpha minimum essential medium (Gibco/Invitrogen, cat no. 22561-021), supplemented with 10% dialysed foetal calf serum (Gibco/Invitrogen cat no. 12480-021) and 2 mM L-glutamine (Gibco/Invitrogen cat no 25030-024) and maintained overnight at 5% CO2, 37° C.
Excess medium was removed from each well to leave 10 μl. 30 μl loading dye (250 μM Brilliant Black, 2 μM Fluo-4 diluted in Tyrodes buffer+probenecid (145 mM NaCl, 2.5 mM KCl, 10 mM HEPES, 10 mM D-glucose, 1.2 mM MgCl2, 1.5 mM CaCl2, 2.5 mM probenecid, pH adjusted to 7.40 with NaOH 1.0 M)) was added to each well and the plates were incubated for 60 minutes at 5% CO2, 37° C.
10 μl of test compound, diluted to the required concentration in Tyrodes buffer+probenecid (or 10 μl Tyrodes buffer+probenecid as a control) was added to each well and the plate incubated for 30 min at 37° C., 5% CO2. The plates were then placed into a FLIPR™ (Molecular Devices, UK) to monitor cell fluorescence (λex=488 nm, λEM=540 nm) in the manner described in Sullivan et al. (In: Lambert DG (ed.), Calcium Signaling Protocols, New Jersey: Humana Press, 1999, 125-136) before and after the addition of 10 μl histamine at a concentration that results in the final assay concentration of histamine being EC80.
Functional antagonism is indicated by a suppression of histamine induced increase in fluorescence, as measured by the FLIPR™ system (Molecular Devices). By means of concentration effect curves, functional affinities are determined using standard pharmacological mathematical analysis.

[2] = target: T2, histamine H3 receptor (Homo sapiens, UniProt Q9Y5N1); assay: Histamine H3 functional antagonist assay (method B), [35S]-GTPγS SPA on membranes; type: biochemical; details: membrane from cultured H3 cells, histamine at EC80, averages of a number of experiments, read-out: functional pKi (fpKi), histamine H3 functional antagonist assay (method B) (converted)
T2 construct: expressed in transfected cells; host or cells: CHO K1 cells carrying pSwitch, transfected with pGeneH3, mifepristone-induced; clone 3H3; membranes
Text: (§1) A membrane preparation containing histamine H3 receptors may be prepared in accordance with the following procedures:
(§2) DNA encoding the human histamine H3 gene (Huvar, A. et al. (1999) Mol. Pharmacol. 55(6), 1101-1107) was cloned into a holding vector, pCDNA3.1 TOPO (InVitrogen) and its cDNA was isolated from this vector by restriction digestion of plasmid DNA with the enzymes BamH1 and Not-1 and ligated into the inducible expression vector pGene (InVitrogen) digested with the same enzymes. The GeneSwitch™ system (a system where in transgene expression is switched off in the absence of an inducer and switched on in the presence of an inducer) was performed as described in U.S. Pat. Nos.: 5,364,791; 5,874,534; and 5,935,934. Ligated DNA was transformed into competent DH5α E. coli host bacterial cells and plated onto Luria Broth (LB) agar containing Zeocin™ (an antibiotic which allows the selection of cells expressing the sh ble gene which is present on pGene and pSwitch) at 50 μg ml^−1. Colonies containing the re-ligated plasmid were identified by restriction analysis. DNA for transfection into mammalian cells was prepared from 250 ml cultures of the host bacterium containing the pGeneH3 plasmid and isolated using a DNA preparation kit (Qiagen Midi-Prep) as per manufacturers guidelines (Qiagen). CHO K1 cells previously transfected with the pSwitch regulatory plasmid (InVitrogen) were seeded at 2×10e6 cells per T75 flask in Complete Medium, containing Hams F12 (GIBCOBRL, Life Technologies) medium supplemented with 10% v/v dialysed foetal bovine serum, L-glutamine, and hygromycin (100 μg ml^−1), 24 hours prior to use. Plasmid DNA was transfected into the cells using Lipofectamine plus according to the manufacturers guidelines (InVitrogen). 48 hours post transfection cells were placed into complete medium supplemented with 500 μg ml^−1 Zeocin™.
10-14 days post selection 10 nM Mifepristone (InVitrogen), was added to the culture medium to induce the expression of the receptor. 18 hours post induction cells were detached from the flask using ethylenediamine tetra-acetic acid (EDTA; 1:5000; InVitrogen), following several washes with phosphate buffered saline pH 7.4 and resuspended in Sorting Medium containing Minimum Essential Medium (MEM), without phenol red, and supplemented with Earles salts and 3% Foetal Clone II (Hyclone). Approximately 1×10e7 cells were examined for receptor expression by staining with a rabbit polyclonal antibody, 4a, raised against the N-terminal domain of the histamine H3 receptor, incubated on ice for 60 minutes, followed by two washes in sorting medium. Receptor bound antibody was detected by incubation of the cells for 60 minutes on ice with a goat anti rabbit antibody, conjugated with Alexa 488 fluorescence marker (Molecular Probes). Following two further washes with Sorting Medium, cells were filtered through a 50 μm Filcon™ (BD Biosciences) and then analysed on a FACS Vantage SE Flow Cytometer fitted with an Automatic Cell Deposition Unit. Control cells were non-induced cells treated in a similar manner. Positively stained cells were sorted as single cells into 96-well plates, containing Complete Medium containing 500 μg ml^−1 Zeocin™ and allowed to expand before reanalysis for receptor expression via antibody and ligand binding studies. One clone, 3H3, was selected for membrane preparation.
All steps of the protocol are carried out at 4° C. and with pre-cooled reagents. The cell pellet is resuspended in 10 volumes of homogenisation buffer (50 mM N-2-hydroxyethylpiperazine-N′-2-ethanesulfonic acid (HEPES), 1 mM ethylenediamine tetra-acetic acid (EDTA), pH 7.4 with KOH, supplemented with 10e-6M leupeptin (acetyl-leucyl-leucyl-arginal; Sigma L2884), 25 μg/ml bacitracin (Sigma B0125), 1 mM phenylmethylsulfonyl fluoride (PMSF) and 2×10e-6M pepstain A (Sigma)). The cells are then homogenised by 2×15 second bursts in a 1 liter glass Waring blender, followed by centrifugation at 500 g for 20 minutes. […]

[3] = target: T2, histamine H3 receptor; assay: Histamine H3 functional antagonist assay (method A), [35S]-GTPγS SPA on membranes; type: biochemical; details: membrane from cultured H3 cells, histamine at EC80, averages of a number of experiments, read-out: functional pKi (fpKi), histamine H3 functional antagonist assay (method A) (converted)
Text: as §1, §2
10-14 days post selection 10 nM Mifepristone (InVitrogen), was added to the culture medium to induce the expression of the receptor. 18 hours post induction cells were detached from the flask using ethylenediamine tetra-acetic acid (EDTA; 1:5000; InVitrogen), following several washes with phosphate buffered saline pH 7.4 and resuspended in Sorting Medium containing Minimum Essential Medium (MEM), without phenol red, and supplemented with Earles salts and 3% Foetal Clone II (Hyclone). […] Receptor bound antibody was detected by incubation of the cells for 60 minutes on ice with a goat anti rabbit antibody, conjugated with Alexa 488 fluorescence marker (Molecular Probes). Following two further washes with Sorting Medium, cells were filtered through a 50 μm Filcon™ (BD Biosciences) and then analysed on a FACS Vantage SE Flow Cytometer fitted with an Automatic Cell Deposition Unit. […]

T1 sequence (P35367 whole entry): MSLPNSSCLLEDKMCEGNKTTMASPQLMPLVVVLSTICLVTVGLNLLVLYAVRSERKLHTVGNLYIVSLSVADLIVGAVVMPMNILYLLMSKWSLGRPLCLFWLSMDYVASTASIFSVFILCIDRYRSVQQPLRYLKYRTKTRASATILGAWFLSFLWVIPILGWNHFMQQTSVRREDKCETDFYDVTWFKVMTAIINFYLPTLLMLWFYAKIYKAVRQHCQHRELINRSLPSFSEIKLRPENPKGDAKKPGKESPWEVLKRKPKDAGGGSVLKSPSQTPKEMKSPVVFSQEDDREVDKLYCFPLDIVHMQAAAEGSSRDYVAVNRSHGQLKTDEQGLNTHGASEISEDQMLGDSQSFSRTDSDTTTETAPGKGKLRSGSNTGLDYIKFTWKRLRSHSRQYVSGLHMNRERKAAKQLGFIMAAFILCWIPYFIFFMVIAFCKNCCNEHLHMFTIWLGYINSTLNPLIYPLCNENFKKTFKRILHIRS
T2 sequence (Q9Y5N1 whole entry): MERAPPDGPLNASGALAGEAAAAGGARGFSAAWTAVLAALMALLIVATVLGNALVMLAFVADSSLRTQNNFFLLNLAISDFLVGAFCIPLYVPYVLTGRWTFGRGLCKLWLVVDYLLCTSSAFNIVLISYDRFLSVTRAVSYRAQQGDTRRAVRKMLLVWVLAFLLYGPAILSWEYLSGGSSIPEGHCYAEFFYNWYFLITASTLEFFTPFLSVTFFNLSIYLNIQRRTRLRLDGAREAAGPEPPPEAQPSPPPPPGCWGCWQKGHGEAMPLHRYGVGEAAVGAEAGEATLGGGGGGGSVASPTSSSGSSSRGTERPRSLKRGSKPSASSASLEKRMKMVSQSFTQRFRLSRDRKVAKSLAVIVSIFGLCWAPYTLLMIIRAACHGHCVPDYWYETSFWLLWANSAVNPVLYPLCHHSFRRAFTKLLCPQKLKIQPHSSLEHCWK

| SMILES | Ki [1] | Ki [2] | Ki [3] |
| --- | --- | --- | --- |
| CCNC(=O)c1cnc(N2CCC(CC3CCN(C4CCC4)CC3)CC2)cn1 [Example E9, 5-{4-[(1-cyclobutyl-4-piperidinyl)methyl]-1-piperidinyl}-N-ethyl-2-pyrazinecarboxamide] | > 1000 nM | ≤ 1 nM | – |
| CC(=O)c1ccc(N2CCC(CC3CCN(C4CCC4)CC3)CC2)cn1 [Example E24, 1-(5-{4-[(1-Cyclobutyl-4-piperidinyl)methyl]-1-piperidinyl}-2-pyridinyl)ethanone] | – | ≤ 0.316 nM | – |
| Cc1noc(-c2ccc(N3CCC(CC4CCN(C(C)C)CC4)CC3)cn2)n1 [Example E15, 5-(4-{[1-(1-Methylethyl)-4-piperidinyl]methyl}-1-piperidinyl)-2-(3-methyl-1,2,4-oxadiazol-5-yl)pyridine] | – | ≤ 1 nM | – |
| CC(=O)c1ccc(N2CCC(CC3CCN(C(C)C)CC3)CC2)cn1 [Example E23, 1-{[5-(4-[1-(1-Methylethyl)-4-piperidinyl]methyl}-1-piperidinyl)-2-pyridinyl]ethanone] | – | ≤ 1 nM | – |
| O=C(c1ccc(N2CCC(CC3CCN(C4CCC4)CC3)CC2)cc1)C(F)(F)F [Example E31] | – | ≤ 1 nM | – |
| CCN1CCC(CC2CCN(c3ccc(-c4nc(C)no4)cc3)CC2)CC1 [Example E18] | – | ≤ 0.316 nM | – |
| CC(C)N1CCC(CC2CCN(c3ccc(C#N)nc3)CC2)CC1 [Example E21, 5-(4-{[1-(1-Methylethyl)-4-piperidinyl]methyl}-1-piperidinyl)-2-pyridinecarbonitrile] | – | ≤ 1 nM | – |
| Cc1noc(-c2ccc(N3CCC(CC4CCN(C(C)C)CC4)CC3)c(F)c2)n1 [Example E14, 1-[2-Fluoro-4-(3-methyl-1,2,4-oxadiazol-5-yl)phenyl]-4-{[1-(1-methylethyl)-4-piperidinyl]methyl}piperidine] | – | ≤ 1 nM | – |
| CC(=O)c1ccc(N2CCC(CC3CCN(C4CCC4)CC3)CC2)nc1 [Example E29] | – | ≤ 1 nM | – |
| FC(F)(F)c1ccc(N2CCC(CC3CCN(C4CCC4)CC3)CC2)nn1 [Example E34] | – | ≤ 1 nM | – |
| N#Cc1ccc(N2CCC(CC3CCN(C4CCC4)CC3)CC2)cn1 [Example E22, 5-{4-[(1-Cyclobutyl-4-piperidinyl)methyl]-1-piperidinyl}-2-pyridinecarbonitrile] | – | ≤ 0.316 nM | – |
| CNC(=O)c1cnc(N2CCC(CC3CCN(C4CCC4)CC3)CC2)cn1 [Example E8] | – | ≤ 1 nM | – |
| CC(=O)c1ccc(N2CCC(CC3CCN(C4CCC4)CC3)CC2)cc1 [Example E25, 1-(4-{4-[(1-Cyclobutyl-4-piperidinyl)methyl]-1-piperidinyl}phenyl)ethanone] | – | ≤ 1 nM | – |
| CNC(=O)c1ccc(N2CCC(CC3CCN(C(C)C)CC3)CC2)cn1 [Example E12, N-Methyl-5-(4-{[1-(1-methylethyl)-4-piperidinyl]methyl}-1-piperidinyl)-2-pyridinecarboxamide] | – | ≤ 1 nM | ≤ 1 nM |
| CC(=O)c1ccc(N2CCC(CC3CCN(C(C)C)CC3)CC2)cc1 [Example E26] | – | ≤ 1 nM | – |
| CNC(=O)c1ccc(N2CCC(CC3CCN(C4CCC4)CC3)CC2)cn1 [Example E11, 5-{4-[(1-Cyclobutyl-4-piperidinyl)methyl]-1-piperidinyl}-N-methyl-2-pyridinecarboxamide] | > 1000 nM | ≤ 1 nM | – |
| CC(C)NC(=O)c1cnc(N2CCC(CC3CCN(C(C)C)CC3)CC2)cn1 [Example E7] | – | – | ≤ 10 nM |
| CC(C)N1CCC(CC2CCN(c3cnc(C(F)(F)F)nc3)CC2)CC1 [Example E36, 5-(4-{[1-(1-Methylethyl)-4-piperidinyl]methyl}-1-piperidinyl)-2-(trifluoromethyl)pyrimidine] | > 1000 nM | ≤ 10 nM | – |
| CCN1CCC(CC2CCN(c3ccc(C(C)=O)cc3)CC2)CC1 [Example E27] | – | ≤ 1 nM | – |
| Cc1noc(-c2ccc(N3CCC(CC4CCN(C(C)C)CC4)CC3)cc2)n1 [Example E13, 1-(1-Methylethyl)-4-({1-[4-(3-methyl-1,2,4-oxadiazol-5-yl)phenyl]-4-piperidinyl}methyl)piperidine] | – | – | ≤ 0.316 nM |
| Cc1noc(-c2ccc(N3CCC(CC4CCN(C(C)C)CC4)CC3)cc2F)n1 [Example E16, 1-[3-fluoro-4-(3-methyl-1,2,4-oxadiazol-5-yl)phenyl]-4-{[1-(1-methylethyl)-4-piperidinyl]methyl}piperidine] | – | ≤ 0.316 nM | – |
| CC(C)NC(=O)c1cnc(N2CCC(CC3CCN(C4CCC4)CC3)CC2)cn1 [Example E6, 5-{4-[(1-Cyclobutyl-4-piperidinyl)methyl]-1-piperidinyl}-N-(1-methylethyl)-2-pyrazinecarboxamide] | > 1000 nM | – | ≤ 1 nM |
| Cc1noc(-c2ccc(N3CCC(CC4CCN(C5CCC5)CC4)CC3)cn2)n1 [Example E17, 5-{4-[(1-cyclobutyl-4-piperidinyl)methyl]-1-piperidinyl}-2-(3-methyl-1,2,4-oxadiazol-5-yl)pyridine] | – | ≤ 1 nM | – |
